Molecules are shown by their SMILES.

Sequence of Recombinant human JAK1 catalytic domain (P23458 850-1154): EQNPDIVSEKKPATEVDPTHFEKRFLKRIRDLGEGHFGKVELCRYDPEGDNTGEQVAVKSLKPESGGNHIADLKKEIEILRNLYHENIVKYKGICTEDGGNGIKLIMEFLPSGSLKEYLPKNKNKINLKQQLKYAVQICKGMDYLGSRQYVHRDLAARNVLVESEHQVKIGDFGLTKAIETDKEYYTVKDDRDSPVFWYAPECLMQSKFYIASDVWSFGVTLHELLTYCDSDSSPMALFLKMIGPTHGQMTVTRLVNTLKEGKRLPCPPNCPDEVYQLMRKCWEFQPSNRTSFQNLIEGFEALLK

The target in the assay is Recombinant human JAK1 catalytic domain (Homo sapiens (Human), UniProt P23458). Kind of assay: JAK1 inhibition assay. It is filed as biochemical. The note with it: semi-quantitative score. How it is done:
Plates were washed 6 times with 300 μL per well of a 75 mM phosphoric acid solution and the bottom of the plates was sealed. 40 μL/well of Microscint-20 was added, the top of the plates was sealed and readout was performed using the Topcount (Perkin Elmer). Kinase activity was calculated by subtracting counts per minute (cpm) obtained in the presence of a positive control inhibitor (10 μM staurosporine) from cpm obtained in the presence of vehicle. The ability of a test compound to inhibit this activity was determined as: Percentage inhibition=((cpm determined for sample with test compound present−cpm determined for sample with positive control inhibitor) divided by (cpm determined in the presence of vehicle−cpm determined for sample with positive control inhibitor))*100%.
Dose dilution series were prepared for the compounds enabling the testing of dose-response effects in the JAK1 assay and the calculation of the IC50 for each compound.
As to `O=C(Nc1ccc(-c2cccc3nc(NC(=O)C4CC4)nn23)cc1)c1ccccc1F` [Compound 34, N-(4-(2-(cyclopropanecarboxamido)-[1,2,4]triazolo[1,5-a]pyridin-5-yl)phenyl)-2-fluorobenzamide], the IC50 (in general, the concentration needed to halve the response being measured) was 101 to 500 nM.
With `O=C(Nc1nc2cccc(-c3ccc(NCCC4CCOCC4)nc3)n2n1)C1CC1` [Compound 93, N-(5-(6-(2-(tetrahydro-2H-pyran-4-yl)ethylamino)pyridin-3-yl)-[1,2,4]triazolo[1,5-a]pyridin-2-yl)cyclopropanecarboxamide], the half-inhibitory concentration (IC50) was in the range of 101 to 500 nM.
As for `O=C(Nc1nc2cccc(-c3cnc(N4CCCCC4)nc3)n2n1)C1CC1` [Compound 9, N-(5-(2-(piperidin-1-yl)pyrimidin-5-yl)-[1,2,4]triazolo[1,5-a]pyridin-2-yl)cyclopropanecarboxamide], the IC50 was more than 1000 nM.
Then `NC(=O)C1CCN(Cc2ccc(-c3cccc4nc(NC(=O)C5CC5)nn34)cc2)CC1` [Compound 140], with 101 to 500 nM.
With `O=C(NCCCN1CCOCC1)c1ccc(-c2cccc3nc(NC(=O)C4CC4)nn23)cc1` [Compound 81, 4-(2-(cyclopropanecarboxamido)-[1,2,4]triazolo[1,5-a]pyridin-5-yl)-N-(3-morpholinopropyl)benzamide] the figure was 101 to 500 nM; with `O=C(Nc1nc2cccc(-c3ccc(OCCc4cccnc4)cc3)n2n1)C1CC1` [Compound 127, N-(5-(4-(2-(pyridin-3-yl)ethoxy)phenyl)-[1,2,4]triazolo[1,5-a]pyridin-2-yl)cyclopropanecarboxamide], 101 to 500 nM; with `O=C(NCCN1CCCC1)c1ccc(-c2cccc3nc(NC(=O)C4CC4)nn23)cc1` [Compound 80, 4-(2-(cyclopropanecarboxamido)-[1,2,4]lriazoIo[1,5-a]pyridin-5-yl)-N-(2-(pyrrolidin-l-yl)ethyl)benzamide], 101 to 500 nM.
As for `O=C(Nc1nc2cccc(-c3ccc(C(=O)N4CCC(c5noc6cc(F)ccc56)CC4)cc3)n2n1)C1CC1` [Compound 149, N-(5-(4-(4-(6-fluorobenzo[d]isoxazol-3-yl)piperidine-1-carbonyl)phenyl)-[1,2,4]triazolo[1,5-a]pyridin-2-yl)cyclopropanecarboxamide], the IC50 fell in the range of 101 to 500 nM.
Turning to `O=C(Nc1nc2cccc(-c3ccnc(N4CCC(CCc5ccccc5)CC4)c3)n2n1)C1CC1` [Compound 112, N-(5-(2-(4-phenethylpiperidin-1-yl)pyridin-4-yl)-[1,2,4]triazolo[1,5-a]pyridin-2-yl)cyclopropanecarboxamide], the IC50 is more than 1000 nM.
For the compound `O=C(Nc1nc2cccc(-c3ccc(S(=O)(=O)Cc4ccccn4)cc3)n2n1)C1CC1` [Compound 194, N-(5-(4-(pyridin-2-ylmethylsulfonyl)phenyl)-[1,2,4]triazolo[1,5-a]pyridin-2-yl)cyclopropanecarboxamide], the IC50 is 101 to 500 nM.
Then `CN(CCc1ccccn1)Cc1ccc(-c2cccc3nc(NC(=O)C4CC4)nn23)cc1` [Compound 155, N-(5-(4-((methyl(2-(pyridin-2-yl)ethyl)amino)methyl)phenyl)-[1,2,4]triazolo[1,5-a]pyridin-2-yl)cyclopropanecarboxamide], with more than 1000 nM; and `CCCc1cc(C(=O)Nc2ccc(-c3cccc4nc(NC(=O)C5CC5)nn34)cc2)n(C)n1` [Compound 69], with 101 to 500 nM; and `Cc1nc(COc2ccc(-c3cccc4nc(NC(=O)C5CC5)nn34)cc2)c(C)o1` [Compound 63, N-(5-(4-((2,5-dimethyloxazol-4-yl)methoxy)phenyl)-[1,2,4]triazolo[1,5-a]pyridin-2-yl)cyclopropanecarboxamide], with 101 to 500 nM.
Then `O=C(Nc1ccc(-c2cccc3nc(NC(=O)C4CC4)nn23)cc1)C1CCC1` [Compound 70, N-(4-(2-(cyclopropanecarboxamido)-[1,2,4]triazolo[1,5-a]pyridin-5-yl)phenyl)cyclobutanecarbox-amide], with 101 to 500 nM.
With `O=C(Nc1nc2cccc(-c3ccc(N4CCNCC4)nc3)n2n1)C1CC1` [Compound 61, N-(5-(6-(piperazin-1-yl)pyridin-3-yl)-[1,2,4]triazolo[1,5-a]pyridin-2-yl)cyclopropanecarboxamide] the figure was more than 1000 nM; with `O=C(Nc1ccc(-c2cccc3nc(NC(=O)C4CC4)nn23)cc1)c1ccccn1` [Compound 55, N-(4-(2-(cyclopropanecarboxamido)-[1,2,4]triazolo[1,5-a]pyridin-5-yl)phenyl)picolinamide], 101 to 500 nM; with `O=C(Nc1ccc(-c2cccc3nc(NC(=O)C4CC4)nn23)cc1)C1CCCCC1` [Compound 45, N-(4-(2-(cyclopropanecarboxamido)-[1,2,4]triazo[1,5-a]pyridin-5-yl)phenyl)cyclohexanecarbox-amide], 101 to 500 nM.
As for `O=C(Nc1nc2cccc(-c3ccc(CN4CCCCC4)cc3)n2n1)C1CC1` [Compound 139, N-(5-(4-(pipcridin-1-ylmethyl)phenyl)-[1,2,4]triazolo[1,5-a]pyridin-2-yl)cyclopropanecarboxamide], the IC50 was in the range of 501 to 1000 nM.
With `O=C(Nc1nc2cccc(-c3ccc(NCc4ccccn4)nc3)n2n1)C1CC1` [Compound 171, N-(5-(6-(pyridin-2-ylmethylamino)pyridin-3-yl)-[1,2,4]triazolo[1,5-a]pyridin-2-yl)cyclopropanecarboxamide] the figure was 101 to 500 nM.
Then `O=C(Nc1nc2cccc(-c3cn(Cc4ccccn4)nn3)n2n1)C1CC1` [Compound 193], with more than 1000 nM; and `COCC(C)N(Cc1ccc(F)cc1)C(=O)c1ccc(-c2cccc3nc(NC(=O)C4CC4)nn23)cc1` (stereo not shown) [Compound 151, 4-(2-(cyclopropanecarboxamido)-[1,2,4]triazolo[1,5-a]pyridin-5-yl)-N-(4-fluorobenzyl)-N-(1-methoxypropan-2-yl)benzamide], with 101 to 500 nM.
Then `CN1CCN(c2ccc(-c3cccc4nc(NC(=O)C5CC5)nn34)cn2)CC1` [Compound 5, N-(5-(6-(4-methylpiperazin-1-yl)pyridin-3-yl)-[1,2,4]triazolo[1,5-a]pyridin-2-yl)cyclopropanecarboxamide], with more than 1000 nM; and `O=C(Nc1nc2cccc(-c3ccc(C(=O)N(Cc4ccc(F)cc4)CC4CCCO4)cc3)n2n1)C1CC1` (stereo not shown) [Compound 153, 4-(2-(cyclopropanecarboxamido)-[1,2,4]triazolo[1,5-a]pyridin-5-yl)-N-(4-fluorobenzyl)-N-((tetrahydrofuran-2-yl)methyl)benzamide], with 101 to 500 nM; and `Cc1nn(C)cc1S(=O)(=O)Nc1ccc(-c2cccc3nc(NC(=O)C4CC4)nn23)cc1` [Compound 65, N-(5-(4-(1,3-dimethyl-1H-pyrazole-4-sulfonamido)phenyl)-[1,2,4]triazolo[1,5-a]pyridin-2-yl)cyclopropanecarboxamide], with 101 to 500 nM.
In the case of `O=C(Nc1nc2cccc(-c3ccc(NCc4cccnc4)nc3)n2n1)C1CC1` [Compound 170, N-(5-(6-(pyridin-3-ylmethylamino)pyridin-3-yl)-[1,2,4]triazolo[1,5-a]pyridin-2-yl)cyclopropanecarboxamide], the IC50 lay in the range of 501 to 1000 nM.
Take `CN(Cc1ccccc1)C1CCN(C(=O)c2ccc(-c3cccc4nc(NC(=O)C5CC5)nn34)cc2)CC1` [Compound 103, N-(5-(4-(4-(benzyl(methyl)amino)piperidine-1-carbonyl)phenyl)-[1,2,4]triazolo[1,5-a]pyridin-2-yl)cyclopropanecarboxamide]: the IC50 was more than 1000 nM.
Then `O=C(Nc1nc2cccc(-c3cnc(N4CCOCC4)nc3)n2n1)C1CC1` [Compound 8, N-(5-(2-morpholinopyrimidin-5-yl)-[1,2,4]triazolo[1,5-a]pyridin-2-yl)cyclopropanecarboxamide], with more than 1000 nM; and `O=C(Nc1nc2cccc(-c3ccc(-c4ccccc4)nc3)n2n1)C1CC1` [Compound 47, N-(5-(6-phenylpyridin-3-yl)-[1,2,4]triazolo[1,5-a]pyridin-2-yl)cyclopropanecarboxamide], with 101 to 500 nM; and `O=C(Nc1nc2cccc(-c3cn(Cc4ccccc4)nn3)n2n1)C1CC1` [Compound 187, N-(5-(1-benzyl-1H-1,2,3-triazol-4-yl)-[1,2,4]triazolo[1,5-a]pyridin-2-yl)cyclopropanecarboxamide], with 501 to 1000 nM.
As for `O=C(Nc1nc2cccc(-c3cnc(N4CCCC4)nc3)n2n1)C1CC1` [Compound 4, N-(5-(2-(pyrrolidin-1-yl)pyrimidin-5-yl)-[1,2,4]triazolo[1,5-a]pyridin-2-yl)cyclopropanecarboxamide], the IC50 fell in the range of 501 to 1000 nM.
With `COc1cccc(C(=O)Nc2ccc(-c3cccc4nc(NC(=O)C5CC5)nn34)cc2)c1` [Compound 53, N-(4-(2-(cyclopropanecarboxamido)-[1,2,4]triazolo[1,5-a]pyridin-5-yl)phenyl)-3-methoxybenzamide] the figure was 101 to 500 nM; with `CC(C)N(Cc1ccc(N2CCCCC2)cc1)C(=O)c1ccc(-c2cccc3nc(NC(=O)C4CC4)nn23)cc1` [Compound 135, 4-(2-(cyclopropanecarboxamido)-[1,2,4]triazolo[1,5-a]pyridin-5-yl)-N-isopropyl-N-(4-(piperidin-1-yl)benzyl)benzamide], 101 to 500 nM.
Regarding `Cc1nccn1CCC1CCN(C(=N)c2ccc(-c3cccc4nc(NC(=O)C5CC5)nn34)cc2)CC1` [Compound 154, N-(5-(4-(imino(4-(2-(2-methyl-1H-imidazol-1-yl)ethyl)piperidin-1-yl)methyl)phenyl)-[1,2,4]triazolo[1,5-a]pyridin-2-yI)cyclopropanecarboxamide], the IC50 was 101 to 500 nM.
For `CN1CCN(Cc2ccc(-c3cccc4nc(NC(=O)C5CC5)nn34)cc2)CC1` [Compound 130, N-(5-(4-((4-methylpiperazin-1-yl)methyl)phenyl)-[1,2,4]triazolo[1,5-a]pyridin-2-yl)cyclopropanecarboxamide], the 50% inhibitory concentration (IC50) was more than 1000 nM.

The values are drawn from patent US10206907B2, “Compounds useful for the treatment of degenerative and inflammatory diseases” (GALAPAGOS NV, priority 2008, dated 2019).
